# Reference: US12240862B2, “Inhibitors of peptidylarginine deiminases” (Gilead Sciences, Inc., priority 2020, dated 2025)
# Target: T1, human PAD4 (Homo sapiens, UniProt Q9UM07)
# T1 construct: human PAD4 (NM_012387), A2P663, was PCR amplified; His-SUMO (N, cleaved yes); made in house; host or cells: E. coli BL21(DE3)
# Test: In vitro PAD4 BAEE biochemical assay
# Details: human PAD4, BAEE substrate; 5 nM PAD4, 2 mM calcium chloride, 3 mM BAEE; geometric mean of multiple experiments
# Outline: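 Tag-free recombinant hPAD4 (5 nM), 2 mM CaCl2, 3 mM BAEE, 50 mM MOPS pH 7.6, 2 mM DTT; 30 min compound preincubation, 2 h reaction, all 25 °C. EDTA quench; ammonia read via o-phthalaldehyde amine coupling, 1 h.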
# T1 sequence (Q9UM07 2-663): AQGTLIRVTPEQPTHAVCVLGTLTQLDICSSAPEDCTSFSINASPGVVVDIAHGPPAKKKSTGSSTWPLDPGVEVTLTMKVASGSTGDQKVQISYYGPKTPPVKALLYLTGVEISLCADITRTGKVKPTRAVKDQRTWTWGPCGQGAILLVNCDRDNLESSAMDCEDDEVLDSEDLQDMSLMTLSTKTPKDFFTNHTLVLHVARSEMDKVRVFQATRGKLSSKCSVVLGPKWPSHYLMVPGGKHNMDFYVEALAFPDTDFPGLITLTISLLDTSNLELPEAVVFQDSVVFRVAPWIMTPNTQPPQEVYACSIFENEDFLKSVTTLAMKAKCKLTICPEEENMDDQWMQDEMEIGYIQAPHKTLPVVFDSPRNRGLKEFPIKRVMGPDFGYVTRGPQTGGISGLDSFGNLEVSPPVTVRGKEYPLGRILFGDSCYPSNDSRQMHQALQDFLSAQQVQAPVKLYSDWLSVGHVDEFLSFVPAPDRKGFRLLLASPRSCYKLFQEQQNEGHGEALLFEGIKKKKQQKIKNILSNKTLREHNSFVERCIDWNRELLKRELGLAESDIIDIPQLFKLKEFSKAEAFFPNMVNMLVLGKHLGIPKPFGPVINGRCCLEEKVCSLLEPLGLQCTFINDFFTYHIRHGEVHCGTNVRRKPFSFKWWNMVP
row,SMILES,IC50
1,"CCOC(=O)N(C)c1ccc2cc(-c3nc4cc(C(=O)N5[C@H]6CC[C@@H]5[C@@H](N)CC6)cc(OC)n4c3C)n(CC3CC3)c2n1 [Example 491, ethyl~{N}-[2-[7-[(1~{R}, 2~{S},5~{R})-2-amino-8-azabicyclo[3.2.1]octane-8-carbonyl]-5-methoxy-3-methylimidazo[1,2-a]pyridin-2-yl]-1-(cyclopropylmethyl)pyrrolo [2,3-b]pyridin-6-yl]-~{N}-methylcarbamate]",32000 nM
2,"COc1cc(C(=O)N2[C@H]3CC[C@@H]2[C@H](N)C3)cc2nc(-c3cc4ccc(N5[C@@H](C)COCS5(=O)=O)nc4n3CC3CC3)c(C)n12 [Example 439, [(1~{R},2~{R},4~{S})-2-amino-7-azabicyclo [2.2.1]heptan-7-yl]-[2-[1-(cyclopropylmethyl)-6-[(5~{S})-5-methyl-3,3-dioxo-1,3,4-oxathiazinan-4-yl]pyrrolo [2,3-b]pyridin-2-yl]-5-methoxy-3-methylimidazo [1,2-a]pyridin-7-yl] methanone]",24.3 nM
3,"COc1cc(C(=O)N2CCC[C@@H](N)C2)cc2nc(-c3cc4ccc([C@@H](C)NC(=O)N5CC(O)C5)nc4n3CC3CC3)c(C3CC3)n12 [Example 146, ~{N}-[(1~{R})-1-[2-[7-[(3~{R})-3-aminopiperidine-1-carbonyl]-3-cyclopropyl-5-methoxyimidazo [1,2-a]pyridin-2-yl]-1-(cyclopropylmethyl)pyrrolo [2,3-b]pyridin-6-yl]ethyl]-3-hydroxyazetidine-1-carboxamide]",160 nM
4,"COc1cc(C(=O)N2C[C@@H]3CCC[C@H]2[C@H]3N)cc2nc(-c3cc4ccc(N(C(F)F)S(C)(=O)=O)nc4n3CC3CC3)c(C)n12 [Example 329, N-[2-[7-[(1S,5S,8S)-8-amino-6-azabicyclo[3.2.1]octane-6-carbonyl]-5-methoxy-3-methyl-imidazo[1,2-a]pyridin-2-yl]-1-(cyclopropylmethyl)pyrrolo [2,3-b]pyridin-6-yl]-N-(difluoromethyl) methanesulfonamide]",5660 nM
5,"COc1cc(C(=O)N2C[C@H](N)C[C@@H]2C)cc2nc(-c3cc4ccc(N(C(F)F)S(C)(=O)=O)nc4n3CC3CC3)c(C)n12 [Example 354, N-[2-[7-[(2S,4R)-4-amino-2-methyl-pyrrolidine-1-carbonyl]-5-methoxy-3-methyl-imidazo[1,2-a]pyridin-2-yl]-1-(cyclopropylmethyl)pyrrolo[2,3-b]pyridin-6-yl]-N-(difluoromethyl) methanesulfonamide]",1890 nM
6,"COc1cc(C(=O)N2[C@H]3CC[C@@H]2[C@H](N)C3)cc2nc(-c3cc4ccc([C@@H](C)NC(=O)N5C[C@@H](F)[C@@H](F)C5)nc4n3CC3CC3)c(C)n12 [Example 245, (3~{R},4~{S})-~{N}-[(1~{R})-1-[2-[7-[(1~{R},2~{R},4~{S})-2-amino-7-azabicyclo [2.2.1]heptane-7-carbonyl]-5-methoxy-3-methylimidazo [1,2-a]pyridin-2-yl]-1-(cyclopropylmethyl)pyrrolo [2,3-b]pyridin-6-yl]ethyl]-3,4-difluoropyrrolidine-1-carboxamide]",62.2 nM
7,"COc1cc(C(=O)N2CC[C@H]3C[C@@]3(N)C2)cc2nc(-c3cc4ccc(N(C(F)F)S(C)(=O)=O)nc4n3CC3CC3)c(C)n12 [Example 362, ~{N}-[2-[7-[(1~{S}, 6~{S})-1-amino-3-azabicyclo[4.1.0]heptane-3-carbonyl]-5-methoxy-3-methylimidazo [1,2-a]pyridin-2-yl]-1-(cyclopropylmethyl)pyrrolo [2,3-b]pyridin-6-yl]-~{N}-(difluoromethyl) methanesulfonamide]",248 nM
8,"CCO[C@@H]1CCN(C(=O)c2cc(OC)n3c(C)c(-c4cc5ccc(N(C(F)F)S(C)(=O)=O)nc5n4CC4CC4)nc3c2)C[C@@H]1N [Example 340, ~{N}-[2-[7-[(3~{S}, 4~{R})-3-amino-4-ethoxypiperidine-1-carbonyl]-5-methoxy-3-methylimidazo [1,2-a]pyridin-2-yl]-1-(cyclopropylmethyl)pyrrolo [2,3-b]pyridin-6-yl]-~{N}-(difluoromethyl) methanesulfonamide]",230 nM
9,"COc1cc(C(=O)N2[C@H]3CC[C@@H]2[C@H](N)C3)cc2nc(-c3cc4ccc([C@@H](C)NC(=O)[C@H](C)OC)nc4n3CC3CC3)c(C)n12 [Example 34, (2~{S})-~{N}-[(1~{R})-1-[2-[7-[(1~{R},2~{R}, 4~{S})-2-amino-7-azabicyclo[2.2.1]heptane-7-carbonyl]-5-methoxy-3-methylimidazo [1,2-a]pyridin-2-yl]-1-(cyclopropylmethyl)pyrrolo[2,3-b]pyridin-6-yl]ethyl]-2-methoxypropanamide]",57.9 nM
10,"COc1cc(C(=O)N2C[C@H]3CCC[C@@H]2[C@@H]3N)cc2nc(-c3cc4ccc(N(C(F)F)S(C)(=O)=O)nc4n3CC3CC3)c(C)n12 [Example 330, N-[2-[7-[(1R,5R,8R)-8-amino-6-azabicyclo[3.2.1]octane-6-carbonyl]-5-methoxy-3-methyl-imidazo [1,2-a]pyridin-2-yl]-1-(cyclopropylmethyl)pyrrolo [2,3-b]pyridin-6-yl]-N-(difluoromethyl) methanesulfonamide]",233 nM
11,"CS(=O)(=O)N(c1ccc2cc(-c3nc4cc(C(=O)N5CCC[C@@H](N)C5)ccn4c3C3CC3)n(CC3CC3)c2n1)C(F)F [Example 398, ~{N}-[2-[7-[(3~{R})-3-aminopiperidine-1-carbonyl]-3-cyclopropylimidazo[1,2-a]pyridin-2-yl]-1-(cyclopropylmethyl)pyrrolo [2,3-b]pyridin-6-yl]-~{N}-(difluoromethyl) methanesulfonamide]",60.7 nM
12,"COc1cc(C(=O)N2[C@H]3CC[C@@H]2[C@H](N)C3)cc2nc(-c3cc4ccc([C@@H](C)NC(=O)C56CC(C5)C6)nc4n3CC3CC3)c(C)n12 [Example 160, ~{N}-[(1~{R})-1-[2-[7-[(1~{R},2~{R},4~{S})-2-amino-7-azabicyclo[2.2.1]heptane-7-carbonyl]-5-methoxy-3-methylimidazo [1,2-a]pyridin-2-yl]-1-(cyclopropylmethyl)pyrrolo [2,3-b]pyridin-6-yl]ethyl]bicyclo[1.1.1]pentane-1-carboxamide]",53.2 nM
13,"COc1cc(C(=O)N2CCC[C@@H](N)C2)cc2nc(-c3cc4ccc(N(C(F)F)S(C)(=O)=O)nc4n3CC3CC3)c(C3CC3)n12 [Example 391, ~{N}-[2-[7-[(3~{R})-3-aminopiperidine-1-carbonyl]-3-cyclopropyl-5-methoxyimidazo [1,2-a]pyridin-2-yl]-1-(cyclopropylmethyl)pyrrolo [2,3-b]pyridin-6-yl]-~{N}-(difluoromethyl) methanesulfonamide]",104 nM
14,"COc1cc(C(=O)N2C[C@H]3CC[C@@H]2[C@@H]3N)cc2nc(-c3cc4ccc([C@@H](C)NC(=O)C(C)(C)C)nc4n3CC3CC3)c(C)n12 [Example 174, N-((R)-1-(2-(7-((1R,4R,7R)-7-amino-2-azabicyclo[2.2.1]heptane-2-carbonyl)-5-methoxy-3-methylimidazo[1,2-a]pyridin-2-yl)-1-(cyclopropylmethyl)-1H-pyrrolo [2,3-b]pyridin-6-yl)ethyl) pivalamide]",297 nM
15,"CS(=O)(=O)N(c1ccc2cc(-c3nc4cc(C(=O)N5CCC[C@@H](N)C5)ccn4c3CC3CC3)n(CC3CC3)c2n1)C(F)F [Example 438, ~{N}-[2-[7-[(3~{R})-3-aminopiperidine-1-carbonyl]-3-(cyclopropylmethyl)imidazo [1,2-a]pyridin-2-yl]-1-(cyclopropylmethyl)pyrrolo [2,3-b]pyridin-6-yl]-~{N}-(difluoromethyl) methanesulfonamide]",194 nM
16,"COc1cc(C(=O)N2[C@H]3CC[C@@H]2[C@H](N)C3)cc2nc(-c3cc4ccc([C@@H](C)NC(=O)c5ccnc(C)c5)nc4n3CC3CC3)c(C)n12 [Example 47, ~{N}-[(1~{R})-1-[2-[7-[(1~{R},2~{R},4~{S})-2-amino-7-azabicyclo[2.2.1]heptane-7-carbonyl]-5-methoxy-3-methylimidazo [1,2-a]pyridin-2-yl]-1-(cyclopropylmethyl)pyrrolo[2,3-b]pyridin-6-yl]ethyl]-2-methylpyridine-4-carboxamide]",24.2 nM
17,"COc1cc(C(=O)N2[C@H]3CC[C@@H]2[C@H](N)C3)cc2nc(-c3cc4ccc([C@@H](C)NC(=O)OC(C)C)nc4n3CC3CC3)c(C)n12 [Example 254, propan-2-yl~{N}-[(1~{R})-1-[2-[7-[(1~{R}, 2~{R},4~{S})-2-amino-7-azabicyclo[2.2.1]heptane-7-carbonyl]-5-methoxy-3-methylimidazo [1,2-a]pyridin-2-yl]-1-(cyclopropylmethyl)pyrrolo [2,3-b]pyridin-6-yl]ethyl] carbamate]",110 nM
18,"COc1cc(C(=O)N2[C@H]3CC[C@@H]2[C@H](N)C3)cc2nc(-c3cc4ccc([C@@H](C)NC(=O)C(C)(O)C(C)C)nc4n3CC3CC3)c(C)n12 (stereo partly shown) [Example 93, ~{N}-[(1~{R})-1-[2-[7-[(1~ {R},2~{R},4~{S})-2-amino-7-azabicyclo[2.2.1]heptane-7-carbonyl]-5-methoxy-3-methylimidazo [1,2-a]pyridin-2-yl]-1-(cyclopropylmethyl)pyrrolo [2,3-b]pyridin-6-yl]ethyl]-2-hydroxy-2,3-dimethylbutanamide]",68.4 nM
19,"COc1cc(C(=O)N2[C@H]3CC[C@@H]2[C@H](N)C3)cc2nc(-c3cc4ccc(C(C)CC(=O)N5CCCC5)nc4n3CC3CC3)c(C)n12 (stereo partly shown) [Example 528, 3-[2-[7-[(1~{R},2~{R}, 4~{S})-2-amino-7-azabicyclo[2.2.1]heptane-7-carbonyl]-5-methoxy-3-methylimidazo[1,2-a]pyridin-2-yl]-1-(cyclopropylmethyl)pyrrolo [2,3-b]pyridin-6-yl]-1-pyrrolidin-1-ylbutan-1-one]",64.3 nM
